Test [1] relates to Herpes simplex virus 1 (HSV-1). As to the kind of experiment: Growth inhibition of HSV-1 in vitro (Vero cells, cytopathic effect / plaques). In kind it is cell-based. The conditions noted are these: for Upper pH limit at which HSV-1 is inactivated by the alcohol: alcohol 0.2% by volume, pH adjusted with HCl, tested pH 4.0 to 6.8 at increments of 0.2, incubated with the virus for 2 minutes; for Virus growth (HSV-1): pH 3.5 (HCl). On the technique in general: Damage to the host cells serves as the signal in cytopathic effect assays.

Test [2] relates to "enveloped" viruses (herpesvirus, orthomyxovirus and rhabdovirus (Rabies virus)). The conditions noted are these: room temperature, aqueous solutions of pure acids; cited from earlier work.
In another test the test system is rhinoviruses. The note with it: foams; cited from earlier work.
The test system of test [3] is naked viruses (e.g., poliovirus type 1). The conditions noted are these: alcohol alone; cited from earlier work.
Test [4] has as its system VSV (a lipid-coated virus). The conditions noted are these: cited from earlier work.

Where two headings read alike, the source gives them in different places.

We go through 12 compounds from patent US9737498B2, “Method for treating an inflammation or lesion caused by a virus” (priority 2001, dated 2017).

Regarding `CCC(O)CO` (stereo not drawn) [1,2-butanediol], in test [1], the “Upper pH limit at which HSV-1 is inactivated by the alcohol” value (shortened to “Upper pH limit”) is 4.2.

For the compound `CC(O)C(C)O` (stereo not drawn) [2,3-butanediol], the “Upper pH limit” value in test [1] amounted to 4.6.

For the compound `O=C(O)CC(O)(CC(=O)O)C(=O)O` [citric acid], the “Effectiveness in vitro against enveloped viruses” value (from here on “Effectiveness in vitro”) in test [2] was “effective”.

As for `CCO` [ethanol], the “Virus growth (HSV-1)” value in test [1] (1.0% ethanol, 5 minute exposure, diluted 1/16 with Eagles medium) is given as “+”; in test [1] (1.0% ethanol, 5 minute exposure, diluted 1/64 with Eagles medium) it was “+”; in test [1] (1.0% ethanol, 5 minute exposure, diluted ¼ with Eagles medium) it was “+”; in test [1] (1.0% ethanol, 5 minute exposure, undiluted), “+”; in test [1] (1.0% ethanol, 10 minute exposure, diluted 1/16 with Eagles medium) it was “+”; in test [1] (1.0% ethanol, 10 minute exposure, diluted 1/64 with Eagles medium), “+”. For the same compound, the “Virus growth (HSV-1)” value was “+” in test [1] (1.0% ethanol, 10 minute exposure, diluted ¼ with Eagles medium); “−” in test [1] (1.0% ethanol, 10 minute exposure, undiluted); “+” in test [1] (2.5% ethanol, 5 minute exposure, diluted 1/16 with Eagles medium); “+” in test [1] (2.5% ethanol, 5 minute exposure, diluted 1/64 with Eagles medium); “+” in test [1] (2.5% ethanol, 5 minute exposure, diluted ¼ with Eagles medium); “+” in test [1] (2.5% ethanol, 5 minute exposure, undiluted). Besides, the “Virus growth (HSV-1)” value in test [1] (2.5% ethanol, 10 minute exposure, diluted 1/16 with Eagles medium) is reported as “+”; in test [1] (2.5% ethanol, 10 minute exposure, diluted 1/64 with Eagles medium), “+”; in test [1] (2.5% ethanol, 10 minute exposure, diluted ¼ with Eagles medium) it was “−”; in test [1] (2.5% ethanol, 10 minute exposure, undiluted), “−”; in test [1] (5.0% ethanol, 5 minute exposure, diluted 1/16 with Eagles medium), “+”; in test [1] (5.0% ethanol, 5 minute exposure, diluted 1/64 with Eagles medium), “+”. In addition, the “Virus growth (HSV-1)” value in test [1] (5.0% ethanol, 5 minute exposure, diluted ¼ with Eagles medium) is reported as “+”; in test [1] (5.0% ethanol, 5 minute exposure, undiluted), “+”; in test [1] (5.0% ethanol, 10 minute exposure, diluted 1/16 with Eagles medium), “+”; in test [1] (5.0% ethanol, 10 minute exposure, diluted 1/64 with Eagles medium) it was “+”; in test [1] (5.0% ethanol, 10 minute exposure, diluted ¼ with Eagles medium), “−”; in test [1] (5.0% ethanol, 10 minute exposure, undiluted), “−”. Further, the “Virus growth (HSV-1)” value in test [1] (10% ethanol, 5 minute exposure, diluted 1/16 with Eagles medium) is reported as “+”; in test [1] (10% ethanol, 5 minute exposure, diluted 1/64 with Eagles medium) it was “+”; in test [1] (10% ethanol, 5 minute exposure, diluted ¼ with Eagles medium), “+”; in test [1] (10% ethanol, 5 minute exposure, undiluted), “+”; in test [1] (10% ethanol, 10 minute exposure, diluted 1/16 with Eagles medium) it was “+”; in test [1] (10% ethanol, 10 minute exposure, diluted 1/64 with Eagles medium) it was “+”. Further, the “Virus growth (HSV-1)” value was “−” in test [1] (10% ethanol, 10 minute exposure, diluted ¼ with Eagles medium); “−” in test [1] (10% ethanol, 10 minute exposure, undiluted); “+” in test [1] (12.5% ethanol, 5 minute exposure, diluted 1/16 with Eagles medium); “+” in test [1] (12.5% ethanol, 5 minute exposure, diluted 1/64 with Eagles medium); “−” in test [1] (12.5% ethanol, 5 minute exposure, diluted ¼ with Eagles medium); “−” in test [1] (12.5% ethanol, 5 minute exposure, undiluted). The “Virus growth (HSV-1)” value is on record as “−” in test [1] (12.5% ethanol, 10 minute exposure, diluted 1/16 with Eagles medium); “+” in test [1] (12.5% ethanol, 10 minute exposure, diluted 1/64 with Eagles medium); “−” in test [1] (12.5% ethanol, 10 minute exposure, diluted ¼ with Eagles medium); “−” in test [1] (12.5% ethanol, 10 minute exposure, undiluted). For the same compound, the “Inhibition of growth of the virus (HSV-1)” value in test [1] (2.5% ethanol solution diluted by ¼, pH 3.5, exposure time 10 minutes) is “effectively inhibited growth of the virus”. The “Inhibition of the virus (HSV-1)” value in test [1] (12.5% ethanol solution, pH 3.5, exposure time of five minutes) was “inhibited the virus”. In test [1], the “Upper pH limit” value worked out at 4.4. Besides, in the test with rhinoviruses, the “Effectiveness in killing rhinoviruses” value is “not effective”. Besides, the “Activity against naked viruses” value in test [3] is listed as “did not exhibit sufficient activities”. The “Virucidal activity against VSV” value in test [4] (pH of about 4 to 5 at 4° C., aqueous solution of biologically active protein) is “fairly inactive”.

On to `O=C(O)CO` [glycolic acid], for which the “Virus growth at sample dilution (HSV-1)” value in test [1] (aqueous acid solution pH 3.8, exposure of 4 minutes, dilution 1/16) is on record as “−”; in test [1] (aqueous acid solution pH 3.8, exposure of 4 minutes, dilution 1/64), “−”; in test [1] (aqueous acid solution pH 3.8, exposure of 4 minutes, dilution ¼), “−”; in test [1] (aqueous acid solution pH 3.8, exposure of 4 minutes, undiluted) it was “−”; in test [1] (aqueous acid solution pH 4.0, exposure of 4 minutes, dilution 1/16), “+”; in test [1] (aqueous acid solution pH 4.0, exposure of 4 minutes, dilution 1/64) it was “+”. For the same compound, the “Virus growth at sample dilution (HSV-1)” value in test [1] (aqueous acid solution pH 4.0, exposure of 4 minutes, dilution ¼) is listed as “+”; in test [1] (aqueous acid solution pH 4.0, exposure of 4 minutes, undiluted), “+”; in test [1] (aqueous acid solution pH 4.2, exposure of 4 minutes, dilution 1/16), “+”; in test [1] (aqueous acid solution pH 4.2, exposure of 4 minutes, dilution 1/64), “+”; in test [1] (aqueous acid solution pH 4.2, exposure of 4 minutes, dilution ¼), “+”; in test [1] (aqueous acid solution pH 4.2, exposure of 4 minutes, undiluted) it was “−”. Further, the “Virus growth at sample dilution (HSV-1)” value in test [1] (aqueous acid solution pH 6.0, exposure of 4 minutes, dilution 1/16) is “+”; in test [1] (aqueous acid solution pH 6.0, exposure of 4 minutes, dilution 1/64) it was “+”; in test [1] (aqueous acid solution pH 6.0, exposure of 4 minutes, dilution ¼), “+”; in test [1] (aqueous acid solution pH 6.0, exposure of 4 minutes, undiluted), “+”.

As for `O=C(O)CC(O)C(=O)O` (stereo not drawn) [malic acid], the “Effectiveness in vitro” value in test [2] is “effective”.

On to `CO` [methanol], for which the “Upper pH limit” value in test [1] is recorded as 4.6.

On to `CCCCO` [n-butanol], for which the “Upper pH limit” value in test [1] is recorded as 4.6.

Consider `CCCO` [propanol, reference compound], for which the “Activity against naked viruses” value in test [3] is “did not exhibit sufficient activities”.

As for `CC(=O)C(=O)O` [pyruvic acid], the “Effectiveness in vitro” value in test [2] is recorded as “effective”.

Take `O=C(O)CCC(=O)O` [succinic acid]: the “Effectiveness in vitro” value in test [2] is reported as “effective”.

butanol [reference compound]: in test [4], the “Virucidal activity against VSV” value was “fairly inactive”.
